Source: patent US6410735B1, “1-(4-arylpiperazin-1-y1)-ω-[N-(α,ω-dicarboximido)]-alkanes useful as uro-selective α1-adrenoceptor blockers” (Ranbaxy Laboratories Limited, priority 1997, dated 2002)

Key:
Type in all cases: cell-based
[1] = target: T1, β1-adrenoceptor (Rattus norvegicus, UniProt P18090); test: Receptor selectivity, electrically stimulated rat ventricular strips; settings: read-out: pKB B-adrenergic (converted)
T1 construct: from tissue; host or cells: rat ventricular strips
Protocol: (§1) Selectivity of action of the present compounds was tested against a range of different receptors, e.g., β1- and α2-adrenergic, muscarinic cholinergic, serotoninergic (5-HT2A), histaminergic (H1), angiotensin II, endothelin (ETA and B,), as well as calcium and potassium channels. Rat aorta was used to study the effect of the compounds on 5-HT2A, ETA, calcium and potassium channels. Angiotensin II receptor antagonistic activity was studied in rabbit aorta. Muscarinic cholinergic receptor and ETB receptor antagonistic activity was studied in rat trachea, while guinea pig trachea was used to study H1 receptor antagonistic activity. Electrically stimulated rat vas deferens was used to investigate the effect of α2-adrenoceptors, while β1-adrenoceptor antagonistic activity was studied using electrically stimulated rat ventricular strips. Results of this selectivity study is shown in (Table 2).

[2] = target: T2, ETB receptor (Rattus norvegicus, UniProt P21451); test: Receptor selectivity, rat trachea; settings: read-out: pKB ETB (converted)
T2 construct: from tissue; host or cells: rat trachea
T2 sequence (P21451 27-442): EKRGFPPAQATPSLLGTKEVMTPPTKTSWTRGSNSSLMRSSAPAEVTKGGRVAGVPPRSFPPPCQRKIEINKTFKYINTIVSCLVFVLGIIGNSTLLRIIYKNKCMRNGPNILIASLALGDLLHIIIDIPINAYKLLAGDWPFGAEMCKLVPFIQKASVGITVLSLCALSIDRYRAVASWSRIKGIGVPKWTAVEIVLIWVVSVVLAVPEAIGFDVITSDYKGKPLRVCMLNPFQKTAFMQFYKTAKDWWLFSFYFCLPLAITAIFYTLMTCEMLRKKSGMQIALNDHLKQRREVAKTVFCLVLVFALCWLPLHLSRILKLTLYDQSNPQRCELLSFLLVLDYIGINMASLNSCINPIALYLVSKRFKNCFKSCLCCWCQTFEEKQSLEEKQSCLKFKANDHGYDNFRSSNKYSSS
Protocol: as §1

[3] = target: T3, Angiotensin II receptor (Oryctolagus cuniculus, UniProt P34976); test: Receptor selectivity, rabbit aorta; settings: read-out: pKB Angiotensin II (converted)
T3 construct: from tissue; host or cells: rabbit aorta
T3 sequence (P34976 1-359): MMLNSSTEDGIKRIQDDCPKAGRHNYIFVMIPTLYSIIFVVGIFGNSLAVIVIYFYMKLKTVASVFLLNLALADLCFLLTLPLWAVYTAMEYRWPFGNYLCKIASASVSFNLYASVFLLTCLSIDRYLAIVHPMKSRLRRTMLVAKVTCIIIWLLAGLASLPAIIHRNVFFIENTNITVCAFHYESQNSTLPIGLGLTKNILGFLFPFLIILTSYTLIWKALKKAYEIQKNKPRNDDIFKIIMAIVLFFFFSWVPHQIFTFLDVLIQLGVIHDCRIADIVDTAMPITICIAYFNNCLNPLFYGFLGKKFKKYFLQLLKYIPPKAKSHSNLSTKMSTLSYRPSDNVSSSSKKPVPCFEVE
Protocol: as §1

T1 sequence (P18090 whole entry): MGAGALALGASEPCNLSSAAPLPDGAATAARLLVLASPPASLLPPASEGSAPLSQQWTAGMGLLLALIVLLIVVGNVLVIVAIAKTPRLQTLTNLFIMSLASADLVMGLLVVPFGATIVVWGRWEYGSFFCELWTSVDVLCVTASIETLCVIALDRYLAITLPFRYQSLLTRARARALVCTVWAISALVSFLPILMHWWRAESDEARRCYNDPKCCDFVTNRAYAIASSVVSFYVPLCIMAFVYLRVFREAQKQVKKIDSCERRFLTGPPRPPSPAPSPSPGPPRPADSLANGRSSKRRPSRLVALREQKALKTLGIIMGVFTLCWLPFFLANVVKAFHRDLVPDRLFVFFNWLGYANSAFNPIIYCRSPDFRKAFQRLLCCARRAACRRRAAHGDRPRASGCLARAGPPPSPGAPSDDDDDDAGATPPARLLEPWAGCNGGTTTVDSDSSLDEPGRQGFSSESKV

COc1ccccc1N1CCN(CCCN2C(=O)CCC2=O)CC1 [Compound 2, 1-[4-(2-Methoxyphenyl)piperazin-1-yl]3-(2,5-dioxopyrrolidin-1-yl)propane]
Kb [1]: 63.1 µM

COc1ccccc1N1CCN(CCCCN2C(=O)CCC2=O)CC1 [Compound 9, 1-[4-(2-Methoxyphenyl)piperazin-1-yl]-4-(2,5-dioxopyrrolidin-1-yl)butane]
Kb [2]: 3.98 µM | Kb [3]: 2.51 µM

COc1ccccc1N1CCN(CCCN2C(=O)CCCC2=O)CC1 [Compound 13, 1-[4-(2-Methoxyphenyl)piperazin-1-yl]-3-(2,6-dioxopiperidin-1-yl)propane]
Kb [1]: 7.94 µM | Kb [2]: 12.6 µM | Kb [3]: 5.01 µM
